The text below walks through data of ChEMBL document CHEMBL4417631, “Oral peptide inhibitors of interleukin-23 receptor and their use to treat inflammatory bowel diseases” (2017).

The structures appear in SMILES notation. *1 amine or outer side, *2 acyl side, *3 side chain or, on linkers, in order; H or OH if unused. Where a SMILES comes first, the peptide text is derived from it. Bridges are numbered along the chain shown (N, C = ends). [ ]: non-standard residue; d: D form. Abu(4-yl) = O=C([C@H](CC[*:3])N[*:1])[*:2]; 2Nal = N[C@@H](Cc1ccc2ccccc2c1)C(=O)O; AEF = NCCOc1ccc(C[C@H](N)C(=O)O)cc1; αMeK = C[C@](N)(CCCCN)C(=O)O; Aib = CC(C)(N)C(=O)O

For series [1], the target named is T1, Interleukin-23 receptor (Homo sapiens, UniProt Q5VWK5).
T1 sequence (Q5VWK5 whole entry): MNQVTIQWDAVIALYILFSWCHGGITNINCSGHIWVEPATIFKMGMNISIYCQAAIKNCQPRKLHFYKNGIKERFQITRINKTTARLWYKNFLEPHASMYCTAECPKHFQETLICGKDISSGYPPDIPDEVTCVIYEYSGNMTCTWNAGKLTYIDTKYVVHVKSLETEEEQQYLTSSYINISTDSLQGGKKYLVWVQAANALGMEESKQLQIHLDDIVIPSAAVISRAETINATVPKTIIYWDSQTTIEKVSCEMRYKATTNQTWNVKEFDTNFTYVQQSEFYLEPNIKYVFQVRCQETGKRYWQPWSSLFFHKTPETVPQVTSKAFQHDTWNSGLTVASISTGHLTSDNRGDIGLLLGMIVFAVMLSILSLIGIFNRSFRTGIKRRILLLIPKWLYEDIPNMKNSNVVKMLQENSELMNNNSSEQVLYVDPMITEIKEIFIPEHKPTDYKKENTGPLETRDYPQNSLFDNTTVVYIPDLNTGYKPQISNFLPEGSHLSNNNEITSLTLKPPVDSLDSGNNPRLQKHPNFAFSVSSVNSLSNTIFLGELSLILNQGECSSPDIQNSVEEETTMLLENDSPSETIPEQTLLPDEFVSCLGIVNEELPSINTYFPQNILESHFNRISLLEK
The series can be described thus: Inhibition of interleukin-23 binding to human interleukin-23 receptor incubated for 2 hrs by competitive binding ELISA.

Series [2] addresses T1, Interleukin-23 receptor. The series can be described thus: Inhibition of interleukin-23 receptor in human DB cells assessed as reduction in IL-23-stimulated STAT3 phosphorylation incubated for 30 mins by HTRF assay. The series is classed as cell-based. (In general: TR-FRET usually uses a lanthanide donor and a delayed reading to cut background.)
The nature of series [3]: Inhibition of interleukin-23 binding to rat interleukin-23 receptor incubated for 2 hrs by competitive binding ELISA. (In general: An ELISA detects its analyte on a solid surface through an enzyme-linked reagent.)
Series [4] is described as follows: Half life in simulated gastric fluid at 20 uM by LC-MS/MS analysis. The series is classed as ADME.
Series [5] is described as follows: Half life in simulated intestinal fluid at 20 uM by LC-MS/MS analysis. The series is classed as ADME.
In series [6] the target is T1, Interleukin-23 receptor. The series can be described thus: Inhibition of interleukin-23 receptor in human natural killer cells assessed as reduction in IL23/IL18-induced IFNgamma production incubated for 20 to 24 hrs by ELISA. The class given is cell-based.

In general, IC50 refers to the midpoint of a concentration-inhibition curve. The half-life is the time needed for the level to fall by half in the phase considered. A low value points to fast loss. As to `CC(=O)NCCCC[C@H](NC(=O)[C@@](C)(NC(=O)[C@H](Cc1ccc2ccccc2c1)NC(=O)[C@H](Cc1ccc(OCCN)cc1)NC(=O)[C@@H]1CSCC[C@H](NC(C)=O)C(=O)N[C@@H](CCC(N)=O)C(=O)N[C@@H]([C@@H](C)O)C(=O)N[C@@H](Cc2c[nH]c3ccccc23)C(=O)N[C@@H](CCC(N)=O)C(=O)N1)C(C)C)C(=O)N[C@@H](CC(N)=O)C(=O)NCC(N)=O`, the IC50 was < 10 nM at Interleukin-23 receptor [1], < 10 nM at Interleukin-23 receptor [2], < 10 nM in series [3] and < 25 nM at Interleukin-23 receptor [6]. In addition, the results for the half-life at 20 µM in series [4] and in series [5] were 1 to 2 h and 2 to 3 h, respectively.

Take `CC(=O)N[C@H]1CCSC[C@@H](C(=O)N[C@@H](Cc2ccc(OCCN)cc2)C(=O)N[C@@H](Cc2ccc3ccccc3c2)C(=O)NC2(C(=O)N[C@@H](CCC(=O)O)C(=O)N[C@@H](CC(N)=O)C(=O)N[C@@H](CC(N)=O)C(N)=O)CCC2)NC(=O)[C@H](CCC(N)=O)NC(=O)[C@H](Cc2c[nH]c3ccccc23)NC(=O)[C@H]([C@@H](C)O)NC(=O)[C@H](CCC(N)=O)NC1=O`: the IC50 is < 10 nM at Interleukin-23 receptor [2], < 10 nM in series [3] and < 25 nM on Interleukin-23 receptor [6]. Also, the half-life at 20 µM in series [4] is 1 to 2 h; in series [5], < 1 h.

Regarding `CC(=O)N[C@H]1CCSC[C@@H](C(=O)N[C@@H](Cc2ccc(OCCN)cc2)C(=O)N[C@@H](Cc2ccc3ccccc3c2)C(=O)N[C@@](C)(CCCCN)C(=O)N[C@@H](CCC(=O)O)C(=O)N[C@@H](CC(N)=O)C(=O)N[C@@H](CCC(N)=O)C(N)=O)NC(=O)[C@H](CCC(N)=O)NC(=O)[C@H](Cc2c[nH]c3ccccc23)NC(=O)[C@H]([C@@H](C)O)NC(=O)[C@H](CCC(N)=O)NC1=O` (Ac-[Abu(4-yl)]QTWQC[AEF][2Nal][αMeK]ENQ-NH2; thioether 1-6), the 50% inhibitory concentration (IC50) on Interleukin-23 receptor [1] is < 10 nM; on Interleukin-23 receptor [2] it was < 10 nM; in series [3] it was < 10 nM; on Interleukin-23 receptor [6], < 25 nM. The half-life at 20 µM in series [4] and in series [5] was 3 to 6 h each time.

As to `CC(=O)NCCCC[C@H](NC(=O)[C@@](C)(NC(=O)[C@H](Cc1ccc2ccccc2c1)NC(=O)[C@H](Cc1ccc(C(N)=O)cc1)NC(=O)[C@@H](NC(=O)[C@H](CCC(N)=O)NC(=O)[C@H](Cc1c[nH]c2ccccc12)NC(=O)[C@@H](NC(=O)[C@H](CCC(N)=O)NC(=O)[C@@H](NC(C)=O)C(C)(C)S)[C@@H](C)O)C(C)(C)S)C(C)C)C(=O)N[C@@H](CC(N)=O)C(=O)N[C@@H](CC(N)=O)C(N)=O`, the results for the IC50 (on Interleukin-23 receptor [2]; in series [3]; on Interleukin-23 receptor [6]) were < 10 nM, 10 to 25 nM and 10 to 25 nM, respectively. Moreover, the results for the half-life at 20 µM in series [4] and in series [5] were 3 to 6 h and > 6 h, respectively.

Turning to `CC(=O)NCCCC[C@H](NC(=O)C(C)(C)NC(=O)[C@H](Cc1ccc2ccccc2c1)NC(=O)[C@H](Cc1ccc(C(N)=O)cc1)NC(=O)[C@@H](NC(=O)[C@H](CCC(N)=O)NC(=O)[C@H](Cc1c[nH]c2ccccc12)NC(=O)[C@@H](NC(=O)[C@H](CC(N)=O)NC(=O)[C@@H](NC(C)=O)C(C)(C)S)[C@@H](C)O)C(C)(C)S)C(=O)N[C@@H](CC(N)=O)C(=O)N[C@@H](CC(N)=O)C(N)=O`, the half-life at 20 µM in series [4] is 3 to 6 h; in series [5] it was 1 to 2 h. The IC50 on Interleukin-23 receptor [6] was < 10 nM.

With `CC(=O)NCCCC[C@H](NC(=O)[C@](C)(CC(C)C)NC(=O)[C@H](Cc1ccc2ccccc2c1)NC(=O)[C@H](Cc1ccc(OCCN)cc1)NC(=O)[C@@H](NC(=O)[C@H](CCC(N)=O)NC(=O)[C@H](Cc1c[nH]c2ccccc12)NC(=O)[C@@H](NC(=O)[C@H](CCC(N)=O)NC(=O)[C@@H](NC(C)=O)C(C)(C)S)[C@@H](C)O)C(C)(C)S)C(=O)N[C@@H](CC(N)=O)C(=O)N[C@@H](CC(N)=O)C(N)=O`, the IC50 (on Interleukin-23 receptor [1]; on Interleukin-23 receptor [2]; in series [3]; on Interleukin-23 receptor [6]) was < 10 nM throughout. Further, the figures for the half-life at 20 µM in series [4] and in series [5] were 3 to 6 h and 2 to 3 h, respectively.

Consider `CC(=O)NCCCC[C@H](NC(=O)[C@](C)(CCCCNC(C)=O)NC(=O)[C@H](Cc1ccc2ccccc2c1)NC(=O)[C@H](Cc1ccc(OCCNC(C)=O)cc1)NC(=O)[C@@H]1CSCC[C@H](NC(C)=O)C(=O)N[C@@H](CCC(N)=O)C(=O)N[C@@H]([C@@H](C)O)C(=O)N[C@@H](Cc2c[nH]c3ccccc23)C(=O)N[C@@H](CCC(N)=O)C(=O)N1)C(=O)N[C@@H](CC(N)=O)C(=O)NCC(N)=O`, for which the IC50 was < 10 nM at Interleukin-23 receptor [1], < 10 nM on Interleukin-23 receptor [2], < 10 nM in series [3] and < 25 nM on Interleukin-23 receptor [6]. For the same molecule, the half-life at 20 µM in series [4] was < 1 h; in series [5], 3 to 6 h.

In the case of `CC(=O)NCCCC[C@H](NC(=O)C(C)(C)NC(=O)[C@H](Cc1ccc2ccccc2c1)NC(=O)[C@H](Cc1ccc(OCCN)cc1)NC(=O)[C@@H]1CSCC[C@H](NC(C)=O)C(=O)N[C@@H](CCC(N)=O)C(=O)N[C@@H]([C@@H](C)O)C(=O)N[C@@H](Cc2c[nH]c3ccccc23)C(=O)N[C@@H](CCC(N)=O)C(=O)N1)C(=O)N[C@@H](CC(N)=O)C(=O)N[C@@H](C)C(N)=O`, the IC50 on Interleukin-23 receptor [1] was < 10 nM; at Interleukin-23 receptor [2], < 10 nM; in series [3], 10 to 25 nM; on Interleukin-23 receptor [6] it was < 25 nM. Besides, the half-life at 20 µM in series [4] was < 1 h; in series [5], 1 to 2 h.

Turning to `CC(=O)N[C@H]1CCSC[C@@H](C(=O)N[C@@H](Cc2ccc(OCCN)cc2)C(=O)N[C@@H](Cc2ccc3ccccc3c2)C(=O)N[C@@](C)(CCCCN)C(=O)N[C@@H](CCCCNC(=O)CC(C)C)C(=O)N[C@@H](CC(N)=O)C(=O)NCC(N)=O)NC(=O)[C@H](CCC(N)=O)NC(=O)[C@H](Cc2c[nH]c3ccccc23)NC(=O)[C@H]([C@@H](C)O)NC(=O)[C@H](CCC(N)=O)NC1=O`, the IC50 at Interleukin-23 receptor [1] was < 10 nM; at Interleukin-23 receptor [2] it was < 10 nM; in series [3], 10 to 25 nM; at Interleukin-23 receptor [6], < 25 nM. For the same molecule, the half-life at 20 µM in series [4] and in series [5] was > 6 h each time.

As to `CC(=O)NCCCC[C@H](NC(=O)C(C)(C)NC(=O)[C@H](Cc1ccc2ccccc2c1)NC(=O)[C@H](Cc1ccc(OCCN)cc1)NC(=O)[C@@H](NC(=O)[C@H](CCC(N)=O)NC(=O)[C@H](Cc1c[nH]c2ccccc12)NC(=O)[C@@H](NC(=O)[C@H](CC(N)=O)NC(=O)[C@@H](NC(C)=O)C(C)(C)S)[C@@H](C)O)C(C)(C)S)C(=O)N[C@@H](CC(N)=O)C(=O)NCCC(N)=O`, the IC50 on Interleukin-23 receptor [2] was < 10 nM; in series [3] it was 10 to 25 nM; at Interleukin-23 receptor [6], < 10 nM. Also, the half-life at 20 µM in series [4] and in series [5] was > 6 h throughout.

Take `CC(=O)N[C@H]1CCSC[C@@H](C(=O)N[C@@H](Cc2ccc(OCCN)cc2)C(=O)N[C@@H](Cc2ccc3ccccc3c2)C(=O)NC(C)(C)C(=O)N[C@@H](CCC(N)=O)C(=O)N[C@@H](CC(N)=O)C(=O)NCC(N)=O)NC(=O)[C@H](CCC(N)=O)NC(=O)[C@H](Cc2c[nH]c3ccccc23)NC(=O)[C@H]([C@@H](C)O)NC(=O)[C@H](CCC(N)=O)NC1=O` (Ac-[Abu(4-yl)]QTWQC[AEF][2Nal][Aib]QNG-NH2; thioether 1-6): the IC50 on Interleukin-23 receptor [1] was < 10 nM; at Interleukin-23 receptor [2], < 10 nM; in series [3], 10 to 25 nM; on Interleukin-23 receptor [6] it was < 25 nM. Besides, the half-life at 20 µM is 3 to 6 h in series [4] and 2 to 3 h in series [5].
